Assay results from patent US20240373852A1, “COMPOSITION FOR ALLEVIATING DROUGHT STRESS COMPRISING AMINO ACID” (CJ CheilJedang Corporation, priority 2022, published 2024).

Test system: Arabidopsis thaliana
Assay: Drought stress alleviation plate assay, single amino acid spray on Arabidopsis thaliana seedlings on PEG-treated medium
Assay type: in vivo
Conditions: for growth and development of above- and below-ground tissues (fresh weight of above-ground tissues, root length): drought stress-induced medium (PEG 20% treated), amino acid aqueous solution 0.05% (w/w) or 0.1% (w/w) sprayed 1 ml/plate, 3 days intervals, 4 times, compared to water or A company's product (AP); for function in alleviating drought stress and promoting plant growth: laboratory condition (plate assay), conclusion from Example 1-2 and 1-3
Source text: In order to select an individual amino acid having function in alleviating drought stress among 20 kinds of amino acids (histidine, sodium glutamate, proline, threonine, tryptophan, valine, alanine, arginine, asparagine, aspartic acid, cysteine, glutamine, glycine, leucine, lysine, methionine, phenylalanine, serine, or tyrosine), Arabidopsis thaliana was trans-planted in drought stress-induced medium, and an amino acid aqueous solution comprising each amino acid (0.05% (w/w) or 0.1% (w/w)) was treated, then the fresh weight of the above-ground tissue and growth and development of the root (main root) of Arabidopsis thaliana were investigated.
Arabidopsis thaliana seeds (provided by Konkuk University plant development genomics lab) were put in a 2% Sodium hypochlorite, 0.05% Tween 20 solution and sterilized for 1 minute, then washed with water 4 times. The sterilized seeds were incubated in dark and cold (4 degrees) for 3 days.
Arabidopsis thaliana seeds were sown in a plant growth medium (½ MS; Murashige and Skoog Medium, Duchefa Biochem), and grow for 6 days in the growth chamber. The growth condition of plants is as follows: • Temperature: 23° C.; humidity: 60˜65%; light: light 16 hours/dark 8 hours
The drought stress-induced medium was prepared by the method as below.
After 24 hours, the PEG solution was removed and dried at a room temperature under a sterile condition.
6 days-old Arabidopsis thaliana seedlings grown in normal plant growth medium were transferred to the drought stress-induced medium (PEG 20% treated) or a control medium (PEG untreated).
Immediately after transfer seedlings on the drought-stress induced medium, an individual amino acid aqueous solution (0.05% (w/w) or 0.1% (w/w)) was sprayed on the plants; 1 ml/plate, 3 days intervals, for 4 times. As a control group, instead of the amino acid aqueous solution, water (DW, distilled water) or A company's drought stress-alleviating product (AP product, comprising Pro 9%, MSG 2.5%, Asp 0.9%) (Ajinomoto Fertilizers, Amino proline) was sprayed by the same method.
After that, the fresh weight, and root growth and development of Arabidopsis thaliana were investigated.

Compound | growth and development of above- and below-ground tissues (fresh weight of above-ground tissues, root length) | function in alleviating drought stress and promoting plant growth
C[C@H](N)C(=O)O [alanine] | excellent | positive function
N=C(N)NCCC[C@H](N)C(=O)O [arginine] | excellent | positive function
N[C@@H](CC(=O)O)C(=O)O [aspartic acid] | excellent | positive function
NC(=O)CC[C@H](N)C(=O)O [glutamine] | excellent | positive function
NCC(=O)O [glycine] | excellent | positive function
N[C@@H](Cc1c[nH]cn1)C(=O)O [histidine] | excellent | positive function
N[C@@H](Cc1ccccc1)C(=O)O [phenylalanine] | excellent | positive function
N[C@@H](CCC(=O)[O-])C(=O)[O-].[Na+].[Na+] [sodium glutamate] | excellent | positive function
N[C@@H](Cc1c[nH]c2ccccc12)C(=O)O [tryptophan] | excellent | positive function
CC(C)[C@H](N)C(=O)O [valine] | excellent | 
